For eight compounds, melting point and IC50 results are on record in patent US20110207732A1, “AZAINDOLE DERIVATIVES” (MERCK PATENT GESELLSCHAFT MIT BESCHRANKTER HAFTUNG, priority 2008, published 2011).

Some results are limits rather than exact numbers.

Series [1] deals with T1, Met kinase (Homo sapiens, UniProt P08581). The series can be described thus: Met kinase inhibition, flashplate method (enzyme). The format is biochemical. On the set-up: 6His (N); purchased Upstate 14-526; host or cells: Sf21 insect cells (S. frugiperda), baculovirus. As for the experimental part: The test plates used are 96-well Flashplate® microtitre plates from Perkin Elmer (Cat. No SMP200). The components of the kinase reaction described below are pipetted into the assay plate. The Met kinase and the substrate poly Ala-Glu-Lys-Tyr, (pAGLT, 6:2:5:1), are incubated for 3 hrs at room temperature with radioactively labelled ^33P-ATP in the presence and absence of test substances in a total volume of […]. The reaction is terminated using 150 μl of a 60 mM EDTA solution. After incubation for a further 30 min at room temperature, the supernatants are filtered off with suction, and the wells are washed three times with 200 μl of 0.9% NaCl solution each time. The measurement of the bound radioactivity is carried out by means of a scintillation measuring instrument (Topcount NXT, Perkin-Elmer).
The full value used is the inhibitor-free kinase reaction. This should be approximately in the range 6000-9000 cpm. The pharmacological zero value used is staurosporin in a final concentration of 0.1 mM. The inhibitory values (IC50) are determined using the RS1_MTS program.
30 μl of assay buffer 10 μl of substance to be tested in assay buffer with 10% of DMSO 10 μl of ATP (final concentration 1 μM cold, 0.35 μCi of ^33P-ATP) 50 μl of Met kinase/substrate mixture in assay buffer; • (10 ng of enzyme/well, 50 ng of pAGLT/well)

The target of series [2] is T1, Met kinase. The series can be described thus: Met kinase inhibition (cell). The format is cell-based.

T1 sequence (P08581 25-1390): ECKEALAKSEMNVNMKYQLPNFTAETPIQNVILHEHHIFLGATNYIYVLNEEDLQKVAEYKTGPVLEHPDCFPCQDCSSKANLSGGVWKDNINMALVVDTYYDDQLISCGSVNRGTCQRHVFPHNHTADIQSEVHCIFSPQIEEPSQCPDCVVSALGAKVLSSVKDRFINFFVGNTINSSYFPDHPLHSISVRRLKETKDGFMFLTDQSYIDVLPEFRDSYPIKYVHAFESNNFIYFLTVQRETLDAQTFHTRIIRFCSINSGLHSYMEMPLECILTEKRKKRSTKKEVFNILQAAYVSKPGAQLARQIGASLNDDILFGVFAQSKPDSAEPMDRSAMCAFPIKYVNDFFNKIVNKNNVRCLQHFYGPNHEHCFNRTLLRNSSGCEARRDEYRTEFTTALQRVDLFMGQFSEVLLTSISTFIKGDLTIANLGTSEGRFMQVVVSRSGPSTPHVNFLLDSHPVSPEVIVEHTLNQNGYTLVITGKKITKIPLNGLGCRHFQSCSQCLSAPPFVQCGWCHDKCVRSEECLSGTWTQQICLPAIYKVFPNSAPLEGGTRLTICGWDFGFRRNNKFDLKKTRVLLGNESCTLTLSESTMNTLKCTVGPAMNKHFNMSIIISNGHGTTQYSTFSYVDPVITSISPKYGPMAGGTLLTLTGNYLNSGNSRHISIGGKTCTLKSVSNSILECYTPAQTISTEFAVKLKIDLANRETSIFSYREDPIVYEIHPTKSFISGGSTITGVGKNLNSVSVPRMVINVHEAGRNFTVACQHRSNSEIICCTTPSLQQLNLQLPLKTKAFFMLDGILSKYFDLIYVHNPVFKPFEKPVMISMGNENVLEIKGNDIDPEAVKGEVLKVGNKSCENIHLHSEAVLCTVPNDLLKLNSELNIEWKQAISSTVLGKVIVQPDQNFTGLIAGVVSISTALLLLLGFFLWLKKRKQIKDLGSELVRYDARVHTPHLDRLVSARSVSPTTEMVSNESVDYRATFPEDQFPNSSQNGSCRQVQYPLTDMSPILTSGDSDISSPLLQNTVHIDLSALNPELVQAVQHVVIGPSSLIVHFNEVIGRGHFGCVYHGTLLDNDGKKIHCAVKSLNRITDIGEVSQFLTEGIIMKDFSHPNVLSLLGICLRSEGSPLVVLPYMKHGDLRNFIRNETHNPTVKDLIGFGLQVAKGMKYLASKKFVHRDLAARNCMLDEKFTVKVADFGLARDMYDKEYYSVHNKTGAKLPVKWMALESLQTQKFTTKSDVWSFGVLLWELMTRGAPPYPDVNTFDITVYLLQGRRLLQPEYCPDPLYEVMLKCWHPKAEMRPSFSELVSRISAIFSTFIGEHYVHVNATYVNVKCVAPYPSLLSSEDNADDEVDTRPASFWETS

As to `N#Cc1ccc2[nH]c(-c3ccncc3)c(-c3ccc(F)cc3)c2n1`, the melting point came out at 230 °C. In the case of `N#Cc1ccc2[nH]c(-c3cncnc3)c(-c3ccc(F)cc3)c2n1` [Compound A14, 3-(4-fluorophenyl)-2-(pyrimidin-5-yl)-1H-pyrrolo[3,2-b]pyridine-5-carbonitrile], the melting point is 230 to 232 °C.

In turn, `N#Cc1ccc2[nH]c(-c3ccc(F)cc3)c(-c3ccncc3)c2n1` [Compound A20] had an IC50 on Met kinase [1] above 10 µM. Take `N#Cc1ccc2[nH]c(-c3ccncc3)c(-c3cccc(F)c3)c2n1` [Compound A58]: the IC50 on Met kinase [1] was 0.1 to 10 µM; at Met kinase [2], above 10 µM. Take `O=C(O)c1ccc2[nH]c(-c3ccncc3)c(-c3cccc(Cl)c3)c2n1` [Compound A59]: the IC50 is 0.1 to 10 µM at Met kinase [1] and above 10 µM on Met kinase [2].

Take `NC(=O)c1ccc2[nH]c(-c3ccncc3)c(-c3cccc(Cl)c3)c2n1` [Compound A60]: the results for the IC50 against Met kinase [1] and against Met kinase [2] were 0.1 to 10 µM and above 10 µM, respectively. Turning to `O=C(NCCN1CCOCC1)c1ccc2[nH]c(-c3ccncc3)c(-c3cccc(Cl)c3)c2n1` [Compound A61], the IC50 on Met kinase [1] and against Met kinase [2] was above 10 µM throughout. Take `N#Cc1ccc2[nH]c(-c3cncnc3)c(-c3cccc(Cl)c3)c2n1` [Compound A62, 3-(3-Chlorophenyl)-2-pyrimidin-5-yl-1H-pyrrolo[3,2-b]pyridine-5-carbonitrile]: the IC50 against Met kinase [1] was above 10 µM.

What is called melting point is the temperature of the solid-liquid transition. In general, IC50 refers to the midpoint of a concentration-inhibition curve.
